From US20130072899A1, “Pharmaceutical Formulations for Iontophoretic Delivery of Gallium” (Nitric BloTherapeutics, Inc., priority 2008, published 2013)

Tests used:
[1] = Effect of pH on skin permeability (tritiated water permeation, Franz cells); format: in vitro ADME, human; settings: 70 h passive permeation
[2] = 25° C., 0.01M; cited from earlier work

| average radioactive count in the receiver compartment ([1]; pH 2) [DPM/mL] | average radioactive count in the receiver compartment ([1]; pH 5) [DPM/mL] | SMILES | Log β (stability constant) [2] |
| --- | --- | --- | --- |
| 55860±25106 | 60557±20376 | [3H]O[3H] [tritiated water, Tritiated water] |  |
|  |  | O=C([O-])CC(O)(CC(=O)[O-])C(=O)[O-].[Ga+3] [Ga citrate] | 10.02 |
|  |  | [OH][Ga+2] [GaOH^++] | −2.9 |
|  |  | [OH][Ga-]([OH])([OH])[OH] [Ga(OH)4^−] | −15.66 |
|  |  | [Ga+3].[OH-].[OH-].[OH-] [Ga(OH)3] | −11.0 |
|  |  | [OH][Ga+][OH] [Ga(OH)2^+] | −6.6 |
